Test results as given in patent US20190047966A1, “NOVEL COMPOUND AND PHARMACOLOGICALLY ACCEPTABLE SALT THEREOF” (MEIJI SEIKA PHARMA CO., LTD., priority 2016, published 2019).
Where a name gives a salt, the structure may show the parent alone.

Columns and labels:
[1] = biological target: human histamine H1 receptor (Homo sapiens, UniProt P35367); test: Evaluation of Human H1 Receptor Affinity ([3H]pyrilamine binding); set-up: purchased PerkinElmer Inc; host or cells: CHO-K1; conditions: inhibition constant Ki, CHO-K1 membrane preparation
In short: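 Ki values are Cheng-Prusoff conversions of IC50 (Kd 1.1 nM) from radioligand displacement of 1.2 nM [3H]pyrilamine, with 1.0 μM pyrilamine defining nonspecific binding.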

[2] = biological target: T1, human histamine H4 receptor (Homo sapiens, UniProt Q9H3N8); test: Evaluation of Human H4 Receptor Affinity ([3H]histamine binding); conditions: inhibition constant Ki, CHO-K1 membrane preparation, read-out: Evaluation of H4 Receptor Affinity
T1 construct: purchased PerkinElmer Inc; host or cells: CHO-K1
In short: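 Radioligand displacement: compound competes with 8.2 nM [3H]histamine at recombinant human H4 receptor in CHO-K1 membranes (Tris-HCl 50 mM pH 7.4, EDTA 1.25 mM; 25 °C, 90 min), with filter-bound radioactivity counted. IC50 was converted to Ki via Cheng-Prusoff (Kd 5.7 nM); 1.0 μM histamine set nonspecific binding.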

Sequence of human histamine H1 receptor (P35367 whole entry): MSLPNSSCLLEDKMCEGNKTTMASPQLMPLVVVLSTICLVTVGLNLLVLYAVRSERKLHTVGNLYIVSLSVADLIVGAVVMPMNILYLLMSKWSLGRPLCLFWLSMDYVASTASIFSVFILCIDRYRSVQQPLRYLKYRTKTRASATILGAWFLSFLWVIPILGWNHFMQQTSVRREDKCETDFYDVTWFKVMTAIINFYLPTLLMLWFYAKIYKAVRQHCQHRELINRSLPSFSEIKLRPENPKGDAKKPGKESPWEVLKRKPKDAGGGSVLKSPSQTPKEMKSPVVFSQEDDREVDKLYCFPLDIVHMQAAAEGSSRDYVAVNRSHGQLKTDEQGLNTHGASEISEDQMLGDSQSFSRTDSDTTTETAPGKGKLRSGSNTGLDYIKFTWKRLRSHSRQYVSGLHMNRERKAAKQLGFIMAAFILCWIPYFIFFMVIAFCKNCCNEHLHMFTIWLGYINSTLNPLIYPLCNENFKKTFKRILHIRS
T1 sequence (Q9H3N8 whole entry): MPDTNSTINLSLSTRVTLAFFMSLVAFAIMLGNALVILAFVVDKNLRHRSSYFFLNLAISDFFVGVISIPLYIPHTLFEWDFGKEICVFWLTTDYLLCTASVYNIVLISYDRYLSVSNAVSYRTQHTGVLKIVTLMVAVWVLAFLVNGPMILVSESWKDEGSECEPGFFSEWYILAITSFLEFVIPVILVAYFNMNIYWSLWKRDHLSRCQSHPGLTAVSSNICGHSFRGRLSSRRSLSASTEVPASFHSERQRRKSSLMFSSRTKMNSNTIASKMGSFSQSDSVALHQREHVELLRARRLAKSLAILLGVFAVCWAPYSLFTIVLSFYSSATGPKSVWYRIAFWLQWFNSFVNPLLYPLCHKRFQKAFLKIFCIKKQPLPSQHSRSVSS

Row | SMILES | Ki [1] | Ki [2]
1 | Nc1nc2c(c(N3CCN(CCO[C@H]4CC[C@H]5[C@H](C(=O)O)[C@H]54)CC3)n1)CCc1cc(OCc3ccc(OC(F)(F)F)cc3)ccc1-2 [Example 181, (1S,25,5R,65)-2-(2-(4-(2-amino-8-((4-(trifluoromethoxy)benzyl)oxy)-5,6-dihydrobenzo[h]quinazolin-4-yl)piperazin-1-yl)ethoxy)bicyclo[3.1.0]hexane-6-carboxylic acid] | < 100 nM | 100 to 500 nM
2 | Nc1nc2c(c(N3CCN(CCOCc4ccc(C(=O)O)s4)CC3)n1)CCc1cc(OCc3ccc(OC(F)(F)F)cc3)ccc1-2 [Example 182, 5-((2-(4-(2-amino-8-((4-(trifluoromethoxy)benzyl)oxy)-5,6-dihydrobenzo[h]quinazolin-4-yl)piperazin-1-yl)ethoxy)methyl)thiophene-2-carboxylic acid] | < 100 nM | 100 to 500 nM
3 | Nc1nc2c(c(N3CCN(CCOc4csc(C(=O)O)c4)CC3)n1)CCc1cc(OCc3ccc(OC(F)(F)F)cc3)ccc1-2 [Example 183, 4-(2-(4-(2-amino-8-((4-(trifluoromethoxy)benzyl)oxy)-5,6-dihydrobenzo[h]quinazolin-4-yl)piperazin-1-yl)ethoxy)thiophene-2-carboxylic acid] | < 100 nM | < 100 nM
4 | Nc1nc2c(c(N3CCN(CCOCC4CCCC(C(=O)O)C4)CC3)n1)CCc1cc(OCc3ccc(OC(F)(F)F)cc3)ccc1-2 (stereo not drawn) [Example 185, trans-3-((2-(4-(2-amino-8-((4-(trifluoromethoxy)benzyl)oxy)-5,6-dihydrobenzo[h]quinazolin-4-yl)piperazin-l-yl)ethoxy)methyl)cyclohexane-1-carboxylic acid dihydrochloride] | < 100 nM | < 100 nM
5 | CS(=O)(=O)NC(=O)COCCOCCN1CCN(c2nc(N)nc3c2CCc2cc(OCc4ccc(Cl)cc4)ccc2-3)CC1 [Example 187, 2-(2-(2-(4-(2-amino-8-((4-chlorobenzyl)oxy)-5,6-dihydrobenzo[h]quinazolin-4-yl)piperazin-1-yl)ethoxy)ethoxy)-N-(methylsulfonyl)acetamide] | < 100 nM | 100 to 500 nM
6 | CNC(=O)COCCOCCN1CCN(c2nc(N)nc3c2CCc2cc(OCc4ccc(Cl)cc4)ccc2-3)CC1 [Example 188, 2-(2-(2-(4-(2-amino-8-((4-chlorobenzyl)oxy)-5,6-dihydrobenzo[h]quinazolin-4-yl)piperazin-1-yl)ethoxy)ethoxy)-N-methylacetamide dihydrochloride] | < 100 nM | < 100 nM
7 | Nc1nc2c(c(N3CCN(CCO[C@H]4C[C@@H](C(=O)NO)C4)CC3)n1)CCc1cc(OCc3ccc(OC(F)(F)F)cc3)ccc1-2 [Example 189, cis 3-(2-(4-(2-amino-8-((4-(trifluoromethoxy)benzyl)oxy)-5,6-dihydrobenzo[h]quinazolin-4-yl)piperazin-1-yl)ethoxy)-N-hydroxycyclobutane-l-carboxamide] | < 100 nM | < 100 nM
8 | Nc1nc2c(c(N3CCN(CCOCC4CN(C5=NS(=O)(=O)N=C5O)C4)CC3)n1)CCc1cc(OCc3ccc(OC(F)(F)F)cc3)ccc1-2 [Example 190(b), 3-(3-((2-(4-(2-amino-8-((4-(trifluoromethoxy)benzyl)oxy)-5,6-dihydrobenzo[h]quinazolin-4-yl)piperazin-1-yl)ethoxy)methyl)azetidin-1-yl)-4-hydroxy-1,2,5-thiadiazole 1,1-dioxide] | < 100 nM | < 100 nM
9 | CN1CCN(c2nc(N)nc3c2CCc2cc(NS(=O)(=O)c4ccc(OCC(F)(F)F)cc4)ccc2-3)CC1 [Example 191, N-(2-amino-4-(4-methylpiperazin-1-yl)-5,6-dihydrobenzo[h]quinazolin-8-yl)-4-(2,2,2-trifluoroethoxy)benzenesulfonamide] | < 100 nM | < 100 nM
10 | Nc1nc2c(c(N3CCNCC3)n1)CCc1cc(NS(=O)(=O)c3ccc(OC(F)(F)F)cc3)ccc1-2 [Example 192, N-(2-amino-4-(4-piperazin-1-yl)-5,6-dihydrobenzo[h]quinazolin-8-yl)-4-(trifluoromethoxy)benezenesulfonamide hydrochloride] | < 100 nM | < 100 nM
11 | CN1CCCN(c2nc(N)nc3c2CCc2cc(NS(=O)(=O)c4ccc(OC(F)(F)F)cc4)ccc2-3)CC1 [Example 193, N-(2-amino-4-(4-methyl-1,4-diazepan-1-yl)-5,6-dihydrobenzo[h]quinazolin-8-yl)-4-(trifluoromethoxy)benzenesulfonamide bis(trifluoroacetate)] | < 100 nM | < 100 nM
12 | CN1CCN(c2nc(N)nc3c2CCc2cc(NS(=O)(=O)N4CCC(F)(F)CC4)ccc2-3)CC1 [Example 194, N-(2-amino-4-(4-methylpiperazin-1-yl)-5,6-dihydrobenzo[h]quinazolin-8-yl)-4,4-difluoropiperidine-1-sulfonamide] | 100 to 500 nM | 100 to 500 nM
13 | CN1CCN(c2nc(N)nc3c2CCc2cc(NC(=O)Nc4ccc(Cl)cc4)ccc2-3)CC1 [Example 195, 1-(2-amino-4-(4-methylpiperazin-1-yl)-5,6-dihydrobenzo[h]quinazolin-8-yl)-3-(4-chlorophenyl)urea] | 100 to 500 nM | < 100 nM
14 | CN1CCN(c2nc(N)nc3c2CCc2cc(OCc4ccc(Br)cc4)ccc2-3)CC1 [Example 197, 8-((4-bromobenzyl)oxy)-4-(4-methylpiperazin-1-yl)-5,6-dihydrobenzo[h]quinazolin-2-amine] | < 100 nM | < 100 nM
15 | CN1CCN(c2nc(N)nc3c2CCc2cc(OCc4ccc(OC(F)(F)F)cc4)ccc2-3)CC1 [Example 198, 4-(4-methylpiperazin-1-yl)-8-((4-(trifluoromethoxy)benzyl)oxy)-5,6-dihydrobenzo[h]quinazolin-2-amine] | < 100 nM | < 100 nM
16 | CN1CCN(c2nc(N)nc3c2CCc2cc(OCC4CCOCC4)ccc2-3)CC1 [Example 199, 4-(4-methylpiperazin-1-yl)-8-((tetrahydro-2H-pyran-4-yl)methoxy)-5,6-dihydrobenzo[h]quinazolin-2-amine] | 100 to 500 nM | 100 to 500 nM
17 | CN1CCN(c2nc(N)nc3c2CCc2ccc(OCc4ccccc4)cc2-3)CC1 [Example 200, 9-(benzyloxy)-4-(4-methylpiperazin-1-yl)-5,6-dihydrobenzo[h]quinazolin-2-amine] | < 100 nM | < 100 nM
18 | CN1CCN(c2nc(N)nc3c2CCCc2ccc(OCc4ccccc4)cc2-3)CC1 [Example 202, 10-(benzyloxy)-4-(4-methylpiperazin-1-yl)-6,7-dihydro-5H-benzo[6,7]cyclohepta[1,2-d]pyrimidin-2-amine] | 100 to 500 nM | < 100 nM
19 | CN1CCN(c2nc(N)nc3c2oc2ccc(OCc4ccccc4)cc23)CC1 [Example 203, 8-(benzyloxy)-4-(4-methylpiperazin-1-yl)benzofuro[3,2-d]pyrimidin-2-amine] | < 100 nM | < 100 nM
20 | CN1CCN(c2nc(N)nc3c2CCOc2cc(OCc4ccccc4)ccc2-3)CC1 [Example 204, 9-(benzyloxy)-4-(4-methylpiperazin-1-yl)-5,6-dihydrobenzo[2,3]oxepino[4,5-d]pyrimidin-2-amine] | < 100 nM | < 100 nM
21 | Nc1nc2c(c(N3CCN(CCO[C@H]4C[C@@H](C(=O)O)C4)CC3)n1)CCc1cc(OCc3ccc(OC(F)(F)F)cc3F)ccc1-2 [Example 205, cis-3-(2-(4-(2-amino-8-((2-fluoro-4-(trifluoromethoxy)benzyl)oxy)-5,6-dihydrobenzo[h]quinazolin-4-yl)piperazin-1-yl)ethoxy)cyclobutane-1-carboxylic acid] | < 100 nM | < 100 nM
22 | Nc1nc2c(c(N3CCN(CCO[C@H]4C[C@@H](C(=O)O)C4)CC3)n1)CCc1cc(OCc3ccc(OC(F)(F)F)c(F)c3)ccc1-2 [Example 206, cis-3-(2-(4-(2-amino-8-((3-fluoro-4-(trifluoromethoxy)benzyl)oxy)-5,6-dihydrobenzo[h]quinazolin-4-yl)piperazin-1-yl)ethoxy)cyclobutane-1-carboxylic acid] | < 100 nM | < 100 nM
23 | COc1cc(OC(F)(F)F)ccc1COc1ccc2c(c1)CCc1c-2nc(N)nc1N1CCN(CCO[C@H]2C[C@@H](C(=O)O)C2)CC1 [Example 207, cis-3-(2-(4-(2-amino-8-((2-methoxy-4-(trifluoromethoxy)benzyl)oxy)-5,6-dihydrobenzo[h]quinazolin-4-yl)piperazin-1-yl)ethoxy)cyclobutane-1-carboxylic acid] | < 100 nM | < 100 nM
24 | Cc1cc(OC(F)(F)F)ccc1COc1ccc2c(c1)CCc1c-2nc(N)nc1N1CCN(CCO[C@H]2C[C@@H](C(=O)O)C2)CC1 [Example 208, cis-3-(2-(4-(2-amino-8-((2-methyl-4-(trifluoromethoxy)benzyl)oxy)-5,6-dihydrobenzo[h]quinazolin-4-yl)piperazin-1-yl)ethoxy)cyclobutane-1-carboxylic acid] | < 100 nM | < 100 nM
25 | Nc1nc2c(c(N3CCN(CCO[C@H]4C[C@@H](C(=O)O)C4)CC3)n1)CCc1cc(OCc3ccc(OC(F)F)cc3)ccc1-2 [Example 210, cis-3-(2-(4-(2-amino-8-((4-(difluoromethoxy)benzyl)oxy)-5,6-dihydrobenzo[h]quinazolin-4-yl)piperazin-1-yl)ethoxy)cyclobutane-1-carboxylic acid] | < 100 nM | < 100 nM
26 | Nc1nc2c(c(N3CCN(CCO[C@H]4C[C@@H](C(=O)O)C4)CC3)n1)CCc1cc(OCc3ccc(SC(F)(F)F)cc3)ccc1-2 [Example 211] | < 100 nM | < 100 nM
